{"source": "patent US7981878B2", "about": "“Tumor treatment with gliotoxin derivatives” (priority 2005, dated 2011)", "key": {"[1]": {"biological_target": "T1, Notch2 (Homo sapiens, UniProt Q04721)", "T1 construct": "endogenous in cells; host or cells: PBMCs from healthy donors, with or without TPA", "T1 sequence (Q04721 1697-2471 limits assumed)": "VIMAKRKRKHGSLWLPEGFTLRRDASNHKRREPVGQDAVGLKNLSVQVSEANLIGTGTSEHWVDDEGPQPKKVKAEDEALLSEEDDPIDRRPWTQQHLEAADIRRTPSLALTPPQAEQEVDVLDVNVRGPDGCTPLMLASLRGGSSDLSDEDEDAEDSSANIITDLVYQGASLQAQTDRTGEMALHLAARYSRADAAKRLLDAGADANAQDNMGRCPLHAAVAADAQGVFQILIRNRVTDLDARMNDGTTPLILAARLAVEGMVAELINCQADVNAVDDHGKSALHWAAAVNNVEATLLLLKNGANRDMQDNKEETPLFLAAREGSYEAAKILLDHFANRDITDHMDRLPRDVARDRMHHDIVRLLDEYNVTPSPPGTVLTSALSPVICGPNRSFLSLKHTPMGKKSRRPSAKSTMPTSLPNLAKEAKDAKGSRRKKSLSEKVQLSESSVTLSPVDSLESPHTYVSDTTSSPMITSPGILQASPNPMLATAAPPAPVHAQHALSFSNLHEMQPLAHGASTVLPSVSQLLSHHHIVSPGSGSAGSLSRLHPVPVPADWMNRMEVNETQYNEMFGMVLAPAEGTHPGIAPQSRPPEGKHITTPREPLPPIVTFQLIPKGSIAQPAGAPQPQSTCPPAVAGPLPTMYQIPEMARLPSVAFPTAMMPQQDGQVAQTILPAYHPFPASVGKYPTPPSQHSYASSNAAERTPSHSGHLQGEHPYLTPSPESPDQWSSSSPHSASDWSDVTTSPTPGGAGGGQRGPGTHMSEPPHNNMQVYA", "assay": "Notch2 activity in PBMCs from healthy donors by EMSA", "assay_type": "cell-based", "conditions": "TPA-stimulated PBMCs, 0.2 μM gliotoxin, 4 hours", "method": "FIG. 4: Gliotoxin induces apoptosis in unstimulated as well as in TPA-stimulated B-CLL cells within 4 hours. Normal PBMCs (peripheral blood mononuclear cells) from healthy donors show a markedly lower Notch2 activity. Although gliotoxin inhibits Notch2 also in normal, TPA-stimulated cells, the gliotoxin-caused apoptosis rate is markedly lower in normal cells as compared to B-CLL cells. Non-stimulated and TPA stimulated PBMC's from healthy donors (HD) are less sensitive to 0.2 μM Gliotoxin despite a basal Notch2 activity. PBMC's and CLL cells were incubated with 0.2 μM Gliotoxin with or without TPA for 4 hours and the Notch2 activity as well as the percentage of apoptotic cells were determined by EMSA and FACS analysis, respectively.\nAfter 4 hours of gliotoxin treatment, massive signs of the starting apoptosis (AnnexinV+) could already be recognized in B-CLL cells. This effect was increased by TPA (a phorbol ester which stimulates the activation of lymphocytes)."}, "[2]": {"system": "CD23", "assay": "CD23 expression (Notch2 target gene) in B-CLL cells by FACS", "assay_type": "cell-based, human", "conditions": "0.2 μM gliotoxin, 24 h", "method": "FIG. 3: Gliotoxin is a potent Notch2 trans-activation inhibitor in B-CLL cells. (A) EMSA showing the inhibition of DNA-bound Notch2IC complexes in the presence of 0.2 μg Gliotoxin. B-CLL samples (n=10) were cultured in the presence of 1 ng/ml TPA with or without 0.2 μM Gliotoxin for 24 hours. Nuclear extracts were subjected to EMSA using a oligonucleotide probe spanning a well defined CBF1/NotchIC binding site derived from the CD23a promoter. (B). Corresponding FACS analysis (plus 10 additional B-CLL samples) showing the downregulation of the Notch2 target gene CD23 as well as the induction of apoptosis of Gliotoxin treated B-CLL samples. Columnes represent the percentage of CD19^+CD23^+ (grey bars) and apoptotic cells (black bars: including early apoptotic cells single positive for AnnexinV, and late apoptotic cells double positive for AnnexinV and probidium iodide), respectively.\nAs drug screening model, a cell culture system was established which conserves the phenotype of freshly isolated B-CLL cells (3×10^6 B-CLL cells/ml RPMI medium+10% FCS, supplemented with 1 ng/ml of TPA). Notch2 activity in the cell nucleus is determined by means of EMSA (electrophoretic mobility shift assay) experiments, and the cell viability (Probidium iodide/annexinV) and CD23 expression (Notch2 target gene) is determined by means of FACS (flow cytometry) analyses, respectively. […]"}, "[3]": {"system": "MiaPaCa (pancreas carcinoma)", "assay": "Cell count analysis MiaPaCa", "assay_type": "cell-based, human", "conditions": "MiaPaCa, 25, 50, 100 and 200 nM, 24 h", "method": "(§1) FIG. 8 a-d: Effects of gliotoxin on cell counts of various human tumour cell lines in vitro. Cell counts of a) hepatocellular carcinoma cell lines HepG2, Huh7, SNU398, Hep3b, HeLa (cervix) and the cholangiocarcinoma cell line NEC as well as b) the pancreatic cancer cell line Panc-1 and the melanoma cell lines d) MelJuso, Meljuso-Bcl-2 (+) and 607B after 72 h treatment with 200 nM gliotoxin; c-d) Cell count dose range experiments with c) pancreatic carcinoma cell lines Panc-1 and MiaPaCa as well as melanoma cell lines MelJuso, 518A2 and 607B using 25, 50 100 and 200 nM gliotoxin for 24 h. All data are given relative to control ±standard deviation.\n(§2) Tumour cells were seeded at a density of 10,000 cells/well in 24-well plates. 24 h after seeding, medium containing gliotoxin was added to yield desired concentrations of gliotoxin. At time points indicated, culture medium was removed by suction. Adherent cells were washed with DPBS (Cambrex, Verviers, Belgium) and incubated with trypsin (Gibco) at 37° C. Detached cells were transferred to test tubes containing Cellpack isotonic fluid (Sysmex Europe, Bornbarch, Germany) and counted with a Coulter Z1 electronic cell counter (Beckman Coulter, Bedford, UK)."}, "[4]": {"system": "Meljuso-Bcl-2 (+) (Bcl-2 over expressing melanoma cell line)", "assay": "Cell count analysis Meljuso-Bcl-2 (+)", "assay_type": "cell-based, human", "method": "as §1, §2"}, "[5]": {"system": "Panc-1 (pancreatic cancer)", "assay": "Apoptosis flow cytometry (Annexin V / 7-AAD) Panc-1", "assay_type": "cell-based, human", "conditions": "Panc-1, 200 nM gliotoxin, 24 h", "method": "(§3) FIG. 10 a-b: Effects of gliotoxin on Notch2 regulation and apoptosis. The melanoma cell line 518A2 (A) and the pancreatic cancer cell line Panc-1 (B) were treated with 200 nM gliotoxin or vehicle control for 24 h Notch2 activity was analysed by band shift assay. Apoptosis was measured as annexin V and 7-AAD double positivity by FACS. Data are given as percentage of apoptotic cells ±standard deviation.\n(§4) Tumour cells were seeded at a density of 50,000 cells/well in 6 well plates. 24 h after seeding, medium containing gliotoxin was added to yield desired concentrations of gliotoxin. After further 24 h cells were harvested, counted and washed twice with PBS. Then, 100,000 cells were resuspended in 100 μl binding buffer and stained with Annexin V-PE and 7-AAD (both Becton Dickinson, N.J., USA) according to manufacturer's recommendations. After 20 minutes incubation time at room temperature in the dark, 400 μl binding buffer was added and immediately analyzed on a FACScalibur flow cytometer using CellQuest software (both Becton Dickinson, N.J., USA)"}, "[6]": {"system": "518A2 (melanoma)", "assay": "Apoptosis flow cytometry (Annexin V / 7-AAD) 518A2", "assay_type": "cell-based, human", "conditions": "518A2, 200 nM gliotoxin, 24 h", "method": "as §3, §4"}, "[7]": {"system": "607B (melanoma)", "assay": "Cell count analysis 607B", "assay_type": "cell-based, human", "method": "as §1, §2"}, "[8]": {"system": "Notch2", "assay": "Notch2 activity band shift assay in 518A2", "assay_type": "cell-based, human", "conditions": "518A2, 200 nM gliotoxin, maximum at 24 h", "method": "as §3\n500,000 cells were seeded on 12 cm^2 plates for 24 h and then treated with 200 nM gliotoxin. At the time points as indicated cells were harvested and immediately frozen at −80° C. The band shift assay was performed as described for B-CLL."}, "[9]": {"system": "Panc-1 (pancreas carcinoma)", "assay": "Cell count analysis Panc-1", "assay_type": "cell-based, human", "method": "as §1, §2"}, "[10]": {"conditions": "mice and rats; cited from earlier work"}}}
{"smiles": "CN1C(=O)[C@]23CC4=CC=C[C@H](O)[C@H]4N2C(=O)[C@@]1(CO)SS3", "note": "[gliotoxin, [3R-(3α,5aβ,6β,10aα)]-2,3,5a,6-tetrahydro-6-hydroxy-3-(hydroxymethyl)-2-methyl-10H-3,10a-epi-dithiopyrazino[1,2-a]indol-1,4-dion]", "values": [{"measurement": "physiologic Notch2 activity (EMSA)", "setting": "[1]", "result": "marked reduction"}, {"measurement": "CD23 expression", "setting": "[2]", "result": "loss of the CD23 expression"}, {"measurement": "cytotoxicity in dose range experiment (cell count)", "setting": "[3]", "result": "clear dose dependent cytotoxicity"}, {"measurement": "response", "setting": "[4]; MelJuso +BCL2, 0.2 μM (60 ng/ml)", "result": "~100", "unit": "%"}, {"measurement": "cell count decrease", "setting": "[4]; Meljuso-Bcl-2 (+), 200 nM gliotoxin, 72 h", "result": 94, "unit": "%"}, {"measurement": "apoptotic cells (annexin V and 7-AAD double positive)", "setting": "[5]", "result": 47, "unit": "%"}, {"measurement": "apoptotic cells (annexin V and 7-AAD double positive)", "setting": "[6]", "result": 92, "unit": "%"}, {"measurement": "effect on cell count", "setting": "[7]; 607B, 200 nM gliotoxin, 72 h", "result": "very effective"}, {"measurement": "cytotoxicity in dose range experiment (cell count)", "setting": "[7]; 607B, 25, 50, 100 and 200 nM, 24 h", "result": "clear dose dependent cytotoxicity"}, {"measurement": "Notch-2 activity (band shift assay)", "setting": "[8]", "result": "time dependent down regulation"}, {"measurement": "response", "setting": "[9]; Panc-1, 0.2 μM (60 ng/ml)", "result": "~100", "unit": "%"}, {"measurement": "effect on cell count", "setting": "[9]; Panc-1, 200 nM gliotoxin, 72 h", "result": "very effective"}, {"measurement": "cytotoxicity in dose range experiment (cell count)", "setting": "[9]; Panc-1, 25, 50, 100 and 200 nM, 24 h", "result": "clear dose dependent cytotoxicity"}, {"measurement": "LD50", "setting": "[10]", "result": "25 to 50", "unit": "mg/kg"}]}
